Reference: patent EP0532512B1, “USE OF PLATELET ACTIVATING FACTOR ANTAGONISTS AS ANTI-PRURITIC AGENTS” (ALLERGAN, INC., priority 1990, dated 1991)
Where a SMILES comes first, the peptide text is derived from it.

Columns and labels:
albino guinea-pig eye = experiment: Pruritogenic activity of autocoids: topical drop to the eye (conjunctiva), scratching episodes counted over 15 minutes; format: in vivo; settings: for NO OF SCRATCH EPISODES (X̄ ± SEM): 15 minutes, n=12; for pruritogenic activity (in words): summary of Table 1
From the text: (§1) A more complete appreciation of the invention may be obtained from the following Examples. As a means of providing an atraumatic experimental model of itching, the conjunctiva was used as a convenient tissue site. Pruritogenic agents may be administered to the conjunctiva without the need to traumatize the tissue by injection or scarification. The itch sensation is elicited peripherically by local, atraumatic application of the pruritogen. Of equal importance is the ability of this model to identify locally acting anti-pruritic agents without concerns regarding local tissue trauma or, in the case of systemically administered agents, sedation.
(§2) The pruritogenic activity of numerous and structurally diverse autocoids was examined as follows. A 20 µl drop of a solution of the particular autocoid under evaluation was topically administered to one albino guinea-pig eye, the contralateral eye received 20 µl of vehicle as a control. For PAF studies, the R=15 version of formula I was used and was taken up in 0.5% ultrapure bovine serum albumin. The guinea pig was then replaced in its cage and the number of scratching episodes was recorded over the 15 subsequent minute period. The retention of the experimental animal in familiar surroundings is an important factor in experimental design. Scratching, which is the typical mammalian behavioral response to the itch sensation, provides an indication of the intensity of the perceived itch sensation and can be quantified by recording the frequency at which itch-scratch episodes occur per unit time: 15 minutes in the case of these examples.

PAF induced pruritus = experiment: Attenuation of PAF induced pruritus by 30 minute topical pretreatment (conjunctival itch-scratch model); format: in vivo, guinea-pig; settings: for scratch episodes, TREATED GROUP (mean ± SEM): 30 minute topical pretreatment, n=12
From the text: as §1, §2
The ability of a 30 minute topical pretreatment with selected PAF antagonists to attenuate PAF induced pruritus is shown in Table 2.

[1] = tested on: experimental allergic itching; experiment: Experimental allergic itching: conjunctival antigen (chicken ovalbumin) challenge in presensitized animals after pretreatment; format: in vivo; settings: n=8-10
From the text: as §1
In addition to pharmacological studies on pruritogenic autocoids, the conjunctiva may be used as a convenient site for modelling diseases where itching is a major symptom. In animals presensitized to a particular antigen, subsequent topical challenge with that antigen results in conjunctival itching. This may be regarded as an experimental model of itching which has general relevance to clinically encountered pruritus. In the studies described herein, chicken ovalbumin was used as an antigenic substance and the ability of PAF antagonist pretreatment to block the itching response was examined (Table 3).

[2] = dose 10 μg, 20 µl drop topically to one eye
[3] = dose 100 μg, 20 µl drop topically to one eye

With `CCCCC/C=C\C/C=C\C/C=C\C=C\C(O)CCCC(=O)O` (stereo not shown) [5-Hydroxytetraemoic Acid] the “NO OF SCRATCH EPISODES (X̄ ± SEM)” value (albino guinea-pig eye; [2]) was 0.33 ± 0.22.
For `CC(=O)O` [10mM ACETIC ACID, ACETIC ACID], the “NO OF SCRATCH EPISODES (X̄ ± SEM)” value (albino guinea-pig eye; pain producing stimulus solution, no dose printed (--)) was 0.42 ± 0.19 and the “pruritogenic activity (in words)” value (albino guinea-pig eye) was “virtual absence of an itch-scratch response”.
For `CCCCC/C=C\CC(O)/C=C/C=C\C/C=C\CCCC(=O)O` (stereo not shown) [12-Hydroxytetraemoic Acid], the “NO OF SCRATCH EPISODES (X̄ ± SEM)” value (albino guinea-pig eye; [2]) was 0.08 ± 0.08.
For `CCCCCC(O)/C=C/C=C\C/C=C\C/C=C\CCCC(=O)O` (stereo not shown) [15-Hydroxytetraemoic Acid], the “NO OF SCRATCH EPISODES (X̄ ± SEM)” value (albino guinea-pig eye; [2]) was 0.08 ± 0.08.
For `CCCCCCCCCCCCCCCCCCNC(=O)OCC(COC(=O)N(Cc1cccc[n+]1CC)C(C)=O)OC` (stereo not shown) [Compound of formula (II)], the “scratch episodes, TREATED GROUP (mean ± SEM)” value (PAF induced pruritus; 10 mg/ml, vs 1 µg PAF) was 2.67 ± 0.68, the “scratch episodes, TREATED GROUP (mean ± SEM)” value (PAF induced pruritus; 10 mg/ml, vs 10 µg PAF) was 6.50 ± 1.09 and the “scratch episodes, TREATED GROUP” value ([1]; 1 mg/ml pretreatment vs 100 µG antigen) was 7.62 ± 0.96.
With `CC1C(=O)OC2C(O)C34C5CC(C(C)(C)C)C36C(OC(=O)C6O)OC4(C(=O)O5)C12O` (stereo not shown) [Compound of formula (III), Ginkgolide B] the “scratch episodes, TREATED GROUP (mean ± SEM)” value (PAF induced pruritus; 10 mg/ml, vs 10 µg PAF) was 8.42 ± 1.37 and the “scratch episodes, TREATED GROUP” value ([1]; 10 mg/ml pretreatment vs 100 µG antigen) was 6.87 ± 1.61.
With `Cc1nnc2n1-c1sc(CCC(=O)N3CCOCC3)cc1C(c1ccccc1Cl)=NC2` [Compound of formula (IV)] the “scratch episodes, TREATED GROUP (mean ± SEM)” value (PAF induced pruritus; 5 mg/ml, vs 1 µg PAF) was 0.33 ± 0.19, the “scratch episodes, TREATED GROUP (mean ± SEM)” value (PAF induced pruritus; 5 mg/ml, vs 10 µg PAF) was 5.25 ± 0.98 and the “scratch episodes, TREATED GROUP” value ([1]; 10 mg/ml pretreatment vs 10 µG antigen) was 5.00 ± 1.10.
For `C[C@H](N)C(=O)NCC(=O)N[C@@H](CO)C(=O)N[C@@H](CCC(=O)O)C(=O)O` [L-alanylglycyl-L-seryl-L-glutamic acid] (H-AGSE-OH), the “NO OF SCRATCH EPISODES (X̄ ± SEM)” value (albino guinea-pig eye; dose 1000 μg, 20 µl drop topically to one eye) was 1.42 ± 0.47.
With `CC(C)[C@H](N)C(=O)NCC(=O)N[C@@H](CC(=O)O)C(=O)N[C@@H](CCC(=O)O)C(=O)O` [L-valylglycyl-L-aspartyl-L-glutamic acid] (H-VGDE-OH) the “NO OF SCRATCH EPISODES (X̄ ± SEM)” value (albino guinea-pig eye; [3]) was 0.92 ± 0.26.
With `CCCCC/C=C\C[C@@H](O)/C=C/C=C/C=C\[C@@H](O)CCCC(=O)O` [LEUKOTRIENE B4] the “NO OF SCRATCH EPISODES (X̄ ± SEM)” value (albino guinea-pig eye; [2]) was 0.42 ± 0.23.
`CCCCC/C=C\C\C=C/C=C/C=C/[C@@H](SC[C@H](NC(=O)CC[C@H](N)C(=O)O)C(=O)NCC(=O)O)[C@@H](O)CCCC(=O)O` [LEUKOTRIENE C4] was tested, and the “NO OF SCRATCH EPISODES (X̄ ± SEM)” value (albino guinea-pig eye; [2]) was 0.58 ± 0.36.
In the case of `CCCCCCCCCCCCCCCCOC[C@@H](O)COP(=O)([O-])OCC[N+](C)(C)C` [LYSO-PAF], the “NO OF SCRATCH EPISODES (X̄ ± SEM)” value (albino guinea-pig eye; dose 1 μg, 20 µl drop topically to one eye) is reported as 0.92 ± 0.26, the “NO OF SCRATCH EPISODES (X̄ ± SEM)” value (albino guinea-pig eye; [2]) is reported as 2.67 ± 0.73 and the “NO OF SCRATCH EPISODES (X̄ ± SEM)” value (albino guinea-pig eye; [3]) is reported as 13.0 ± 1.58. For the same compound, the “pruritogenic activity (in words)” value (albino guinea-pig eye) was “relatively weak activity”.
For `CCCCCCCCCCCCCCCCOCC(COP(=O)([O-])OCC[N+](C)(C)C)OC(C)=O` (stereo not shown) [PAF, 1-O-alkyl-2-acetyl-sn-glycero-3-phosphocholine], the “pruritogenic activity (in words)” value (albino guinea-pig eye) was “most potent pruritogenic agent”.
`CCCCC[C@H](O)/C=C/[C@@H]1[C@@H](C/C=C\CCCC(=O)O)[C@@H](O)C[C@H]1O` [PROSTAGLANDIN F2α] was tested, and the “NO OF SCRATCH EPISODES (X̄ ± SEM)” value (albino guinea-pig eye; [3]) was 1.75 ± 0.37.
For `COc1ccc(CN(CCN(C)C)c2ccccn2)cc1` [Pyrilamine], the “scratch episodes, TREATED GROUP (mean ± SEM)” value (PAF induced pruritus; 0.1 mg/ml, vs 1 µg PAF) was 4.17 ± 0.91, the “scratch episodes, TREATED GROUP (mean ± SEM)” value (PAF induced pruritus; 0.1 mg/ml, vs 10 µg PAF) was 14.25 ± 1.75 and the “block of PAF induced pruritus (in words)” value (PAF induced pruritus; summary of Table 2) was “not”.
For “Bradykinin (RPPGFSPFR; Bradykinin; UniProt P01042 381-389, looked up)”, the “NO OF SCRATCH EPISODES (X̄ ± SEM)” value (albino guinea-pig eye; [2]) was 0.50 ± 0.23 and the “NO OF SCRATCH EPISODES (X̄ ± SEM)” value (albino guinea-pig eye; [3]) was 4.00 ± 0.90.
